Source: patent publication EP0331014A2, “Use of ACE inhibitors in diabetes prophylaxis” (THERA - Patent Verwaltungs-GmbH, priority 1988, dated 1989)

System: ÜBERGEWICHTIGEN FRAUEN
Experiment: Three-year placebo-controlled prophylaxis study: incidence of diabetes mellitus in overweight persons with impaired oral glucose tolerance
Format: in vivo, Patienten
Details: for DIABETES MELLITUS (ERKRANKUNGSRATE AN DIABETES MELLITUS): number of cases (WHO definition), 2 X 3 mg tgl.
Excerpt: Es wurden 122 übergewichtigte Personen ausgesucht, die im Mittel 25 % Übergewicht und eine gestörte orale Glukosetoleranz hatten. Diese Patienten gaben nach Aufklärung ihr Einverständnis an dieser Studie über 3 Jahre teilzunehmen. Sie hatten bereits 5 bis 10 Versuche einer Gewichtsabnahme hinter sich, die alle erfolglos verlaufen waren. Ein Diabetes mellitus war nach der Definition des World Health Organization-Reports (Techn. Rep. Ser. 646, 1-80, 1980), bei diesen Patieten ausgeschlossen. Sie wurden in zwei gleich starke Gruppen eingeteilt, so daß nach Alter, Ausmaß der Störung des Glucose-Toleranz-Tests (OGTT) und Größe und Dauer des Übergewichts kein Unterschied bestand. Die Patienten wurden in halbjährlichen Abständen ambulant kontrolliert. Wie zu Beginn, wurden bei diesen Kontrollen folgende Blutwerte gemessen: Blutsenkung, Blutbild, Nüchternblutzucker, OGTT, Gewicht, Cholesterin und Triglyzeride, Serum Glutamat-Oxalat-Transaminase (SGOT), Serum Glutamat-Pyruvat Transaminase (SGPT). Damit wurden den Stoffwechesl beeinträchtigende Krankheiten ausgeschlossen.
Sie erste Gruppe erhielt 2 x 3 mg Captopril täglich, die zweite entsprechend Placebo. Die Patienten hatten die Auflage, keine den Stoffwech l beeinträchtigende Medikamente, z.B. Diuretika, β-Blocker ode dergleichen einzunehmen. In beiden Gruppen schieden über den Zeitraum von 3 Jahren 28 Patienten aus verschiede nen Gründen aus. Die Gruppen veränderten sich dadurch jedoch nicht so, daß sie statistisch nicht mehr auswertbar waren.

C[C@H](CS)C(=O)N1CCC[C@H]1C(=O)O [Captopril, 1-[(2S)-3-Mercapto-2-methylpropionyl]-L-prolin]
Erkrankungsrate an Diabetes mellitus (nach 3 Jahren, versus placebo, 2 x 3 mg täglich, p < 0,001 (Student's t-Test)): geringere Erkrankungsrate an Diabetes mellitus | DIABETES MELLITUS (ERKRANKUNGSRATE AN DIABETES MELLITUS) (ZEITRAUM 1985 -1 (start), 63 in group): 0 | DIABETES MELLITUS (ERKRANKUNGSRATE AN DIABETES MELLITUS) (ZEITRAUM 1986 - 2, 60 in group): 2 | DIABETES MELLITUS (ERKRANKUNGSRATE AN DIABETES MELLITUS) (ZEITRAUM 1987 - 2, 54 in group): 4 | DIABETES MELLITUS (ERKRANKUNGSRATE AN DIABETES MELLITUS) (ZEITRAUM 1988 - 1, 48 in group, placebo 11 of 46, p< 0,001): 4 | Verminderung dieses Risikos (an Diabetes mellitus zu erkranken) (risk groups (strongly overweight, older than 50 years; risk about 45 % over two years), 2 x 3 mg pro Tag): > 50%
